Source: patent publication US20080069809A1, “Compositions and methods for the diagnosis and treatment of cancer” (priority 2006, published 2008)

How the values were obtained:
[1] = target: EGFP-tagged mouse PKC-δ (Mus musculus, UniProt P28867); settings: KG1a
Protocol: KG1a cells were transfected with PKC-δ-EGFP or pEGFP-N1 (vector control). At 24 hours after transfection, cells were treated with 0, 0.2, 2 and 20 μM PEP005 and cytospins prepared after 15 minutes. Slides were fixed with 2% v/v paraformaldehyde in PBS for 20 minutes, rinsed briefly in PBS and mounted in Vectashield containing DAPI (4.6 diamidino-2-phenylindole; Vector Laboratories, Burlingame, Calif.). Slides were examined using a Leica Fluorescence microscope (Leica, Heidelberg, Germany) fitted with ×60 oil immersion objective. Images were captured using a Hamanatsu C4742-95 camera (Grafter Imaging, Austin, Tex.) and analyzed using OpenLab 3.1 software (Improvision, Coventry, United Kingdom).

[2] = test system: KG1a; assay: Apoptosis (sub-G1 DNA by FACS) in KG1a leukemic cells; assay type: cell-based; settings: even at 20 μM PEP005
Protocol: The myeloid leukemic cell lines HL60, NB60, NB4, U937, K562 and KG1a were all grown in RPMI 1640 medium (Life Technologies, Paisley, United Kingdom) supplemented with 10% v/v fetal calf serum (Sear Laboratories International Crawley, United Kingdom), 100 U/mL penicillin, and 100 μg/mL streptomycin (Sigma Aldrich, Poole, United Kingdom) at 37° C. and 5% v/v CO2. AML blasts were isolated from patient bone marrow aspirates and peripheral blood of eight patients at diagnosis or relapse. Patients were not receiving AML therapy at time of sampling. Blasts were isolated by Ficoll density centrifugation and were cultured in serum-free insulin transferrin selenium-positive (ITS+) medium (Life Technologies) containing 300 ng/mL stem cell factor (SCF) and 10 ng/mL interleukin 3 (IL3; R and D Systems, Abingdon, United Kingdom) and antibiotics. […] Normal myeloblasts were isolated from cord blood or adult mobilized peripheral blood. Briefly, CD34^+ cells were indirectly selected from the mononuclear cell preparations using antibody-coated magnetic beads (Miltenyi Biotec, United Kingdom).
To determine the effects of ingenol-3-angelate (PEP005), cells were incubated for up to 5 days with medium alone or PEP005 at a range of concentrations from 0.2 nM to 20 μM. […] Apoptosis and differentiation were assessed after 1 to 5 days.

Chain of EGFP-tagged mouse PKC-δ (P28867 whole entry): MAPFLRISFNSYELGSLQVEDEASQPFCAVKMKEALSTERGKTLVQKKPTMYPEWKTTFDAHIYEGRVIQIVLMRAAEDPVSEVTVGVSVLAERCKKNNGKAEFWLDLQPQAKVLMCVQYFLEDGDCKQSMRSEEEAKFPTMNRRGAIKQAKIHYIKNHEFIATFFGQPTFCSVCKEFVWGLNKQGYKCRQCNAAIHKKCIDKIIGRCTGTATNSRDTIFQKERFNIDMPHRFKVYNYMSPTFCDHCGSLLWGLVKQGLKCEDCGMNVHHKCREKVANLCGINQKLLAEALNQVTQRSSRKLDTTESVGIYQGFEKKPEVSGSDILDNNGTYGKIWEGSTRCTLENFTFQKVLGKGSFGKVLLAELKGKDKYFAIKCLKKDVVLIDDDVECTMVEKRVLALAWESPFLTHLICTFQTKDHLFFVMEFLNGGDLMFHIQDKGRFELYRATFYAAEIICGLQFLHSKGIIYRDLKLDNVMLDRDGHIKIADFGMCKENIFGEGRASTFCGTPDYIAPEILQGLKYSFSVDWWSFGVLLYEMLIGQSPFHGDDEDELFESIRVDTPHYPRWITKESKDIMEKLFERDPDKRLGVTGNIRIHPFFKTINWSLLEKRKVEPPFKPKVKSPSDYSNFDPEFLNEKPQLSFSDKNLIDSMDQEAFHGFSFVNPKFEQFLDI

For `C/C=C(/C)C(=O)O[C@H]1C(C)=C[C@]23C(=O)[C@@H](C=C(CO)[C@@H](O)[C@]12O)[C@H]1[C@@H](C[C@H]3C)C1(C)C` [PEP005, ingenol-3-angelate], the “time to translocation of EGFP-tagged PKC-δ to the nuclear region” value ([1]; 200 nM PEP005) was no more than 5 min, the “translocation of EGFP-PKC-δ” value ([1]; from cytosol after PEP005 treatment) was “induced its translocation to the nucleus and perinuclear region” and the entry into apoptosis [2] was “did not enter apoptosis”.
